Test results as given in patent US20140094424A1, “MICROBICIDAL COMPOSITIONS AND METHODS OF PRODUCTION USE THEREOF” (priority 2011, published 2014).

How the values were obtained:
[1] = Dissolution of antibiotic in Wash NEXT reagent; format: physicochemical; details: 1% in Wash NEXT base pool
[2] = system: creatinine biosensor (creatinine amidohydrolase, creatinine amidinohydrolase and sarcosine oxidase); test: Effect on enzymatic activity of a creatinine biosensor (rate of O2% decrease); format: biochemical; details: 40 mM propionate, FIG. 2
Method: In FIG. 1, the effects of various concentrations of gentamicin on the enzymatic activity of a creatinine biosensor (comprising the three enzymes creatinine amidohydrolase, creatinine amidinohydrolase and sarcosine oxidase) were determined. In FIG. 2, the effects of various concentrations of propionate on the enzymatic activity of a creatinine biosensor (comprising three enzymes) were determined.
In both instances, a decreasing rate of O2% is an indicator of enzyme activity; the faster the rate of O2% decrease, the higher enzymatic activity is.

SMILES	dissolution in the Wash reagent [1]	effect on enzymatic activity of the three enzymes in the creatinine biosensor [2]
CO[C@@H]1[C@@H](OC(N)=O)[C@@H](O)[C@H](Oc2ccc3c(O)c(NC(=O)c4ccc(O)c(CC=C(C)C)c4)c(=O)oc3c2C)OC1(C)C [novobiocin]	neither antibiotic completely dissolved in the Wash reagent	–
CCC(=O)O [propionate]	–	did not substantially affect the enzymatic activity
